Data: patent US20240190823A1, “NRF2 INHIBITORS AND USES THEREOF” (Board of Trustees of Michigan State University, priority 2021, published 2024)

Legend:
A549 cells [1] = test: In vivo treatment study, subcutaneous A549 xenograft; conditions: for tumor growth (tumor volume): i.p. daily (M-F), compound 1 50 mg/kg BID, carboplatin 5 mg/kg
Procedure: Male athymic nude mice (Harlan Laboratories, 6 week-old) were injected in the flank with 5×10^6 A549 cells. Cell line authenticity and absence of pathogens in the A549 cells were confirmed before establishing the model (I DEXX BioAnalytics). […] All mice were weighed twice a week, and tumors were measured twice a week using a caliper. All mice were sacrificed after 4 weeks of treatment and harvested for analysis of Nrf2 expression and cell proliferation.
Tumors were harvested and fixed in 10% neutral buffered formalin. Sectioned were obtained for immunohistochemistry staining. Sodium citrate buffer (10 mM, Vector) was used for antigen retrieval. 3% hydrogen peroxide (15-minute incubation) was used to quench the endogenous peroxidase activity. Sections were stained with PCNA (1:200, Santa Cruz) or Nrf2 (1:200, Novus Biologicals) antibodies for 1 hour at room temperature or overnight at 4° C., respectively. Anti-mouse and anti-rabbit secondary antibodies conjugated to HRP were purchased from Cell Signaling Technology. Signal was detected using a DAB kit (Cell Signaling Technology) and sections were counterstained with hematoxylin (Vector).

[2] = tested on: A549, H460, A427 and MCF-7 cells; test: Cell growth assay, MTT, 2D culture, cancer cells; format: cell-based, human; conditions: 72 hours
Procedure: (§1) To evaluate cell proliferation in 2D culture, a MTT assay was performed. Cells were seeded in 96-well plates with 2000 cells/well in their corresponding growth media. […] To assess cell growth in 3D culture, A549, H460 and A427 cells were plated in 0.6% soft agar for 7 days. A Cytation 3 imaging reader from BioTek with Gen5 3.04 software was used to quantify colonies. Seven pictures were taken every 100 μm and superimposed together by z-projection function. Colonies>50 μm in diameter were quantified for each cell line.
(§2) Besides its anti-oxidative properties, Nrf2 also contributes to tumor cell growth. Nrf2 not only regulates cell proliferation as a downstream mediator of several onco-proteins but also reprograms cellular metabolism to favor anabolic pathways.

A549 cells [3] = test: Reactive oxygen species (ROS) assay; conditions: 24 hours, then tBHP for 15 minutes
Procedure: DCFDA (10 μM) was added for 2 hrs as an ROS indicator and then cells were treated with tert-butyl hydroperoxide (tBHP, 250 μM) for 15 minutes before harvesting. Then cells were washed with PBS and trypsinized to a single cell suspension. The cell pellet was resuspended in PBS and analyzed using a flow cytometer (Accuri, BD) with the FLA-1 channel. 50,000 events were acquired for each sample. Mean fluorescence intensity (MFI) was calculated using FlowJo software.

A549 cells [4] = test: Chemoresistance assay (Celltiter-glo); conditions: 72 hours
Description: Data was normalized to the DMSO control and presented as a percentage of cell viability. Data represent three independent experiments.

[5] = tested on: NF-κB pathway proteins (IκBa, NF-κB, p-NF-κB), cyclinG1 and STAT3; test: Western blotting of other cellular proteins (selectivity); format: cell-based
Procedure: Protein concentrations were measured using the BCA assay (Sigma-Aldrich). 20 μg of protein were separated by 10% SDS-PAGE gels and transferred to nitrocellulose membranes. Nrf2 (Novus Biologicals, 1:1000), NQO1 (Abcam, 1:1000), HO-1 (Abcam, 1:1000), Keap1 (Cell Signaling Technology, 1:1000), NF-κB (Cell Signaling Technology, 1:1000), IκBα (Cell Signaling Technology, 1:1000) Cyclin G1 (Santa Cruz, 35 1:1000), β-TrCP (Cell Signaling Technology, 1:1000), STAT3 (Cell Signaling Technology, 1:1000), Ubiquitin (Cell Signaling Technology, 1:1000), Histone 3 (Cell Signaling Technology, 1:4000), GAPDH (Santa Cruz, 1:4000) and Vinculin (Cell Signaling Technology, 1:4000) primary antibodies were applied to detect the corresponding proteins. Secondary antibodies (anti-rabbit or anti-mouse linked to HRP, 1:1000) were purchased from Cell Signaling Technology. ECL Western blotting substrate (GE Healthcare Life Sciences, UK) was used to detect the signal. […] Protein quantification was done using ImageJ.

MCF-10A cells = test: Cell growth assay, MTT, MCF-10A cells; format: cell-based; conditions: concentrations<20 μM (data not shown)
Procedure: as §1, §2

Nrf2 pathway = test: RT-qPCR of targets downstream of Nrf2 in A549 cells; conditions: 24 hours of treatment
Procedure: Total RNA was isolated using a RNeasy Mini Kit (QIAGEN). RNA concentrations were determined using NanoDrop. For each sample, 500 ng RNA was used to synthesize cDNA with high capacity cDNA reverse transcription kits (AppliedBiosystems). Primers were ordered from IDT. AppliedBiosystems Fast SYBR Green Master Mix and the QuantStudio 7 Flex Real-Time PCR system were used to detect gene expression. The delta-delta Ct method was applied to calculate relative gene expression. Values were normalized to the reference gene GAPDH and expressed as fold change compared to DMSO treated samples.

[6] = tested on: A549, H460 and A427 cells; test: Cell growth in 3D culture (0.6% soft agar); format: cell-based, human; conditions: 7 days, dose-dependent
Procedure: as §1, §2

Nrf2 = biological target: T1, Nrf2 (Homo sapiens, UniProt Q16236); conditions: cited from earlier work
T1 sequence (Q16236 1-605): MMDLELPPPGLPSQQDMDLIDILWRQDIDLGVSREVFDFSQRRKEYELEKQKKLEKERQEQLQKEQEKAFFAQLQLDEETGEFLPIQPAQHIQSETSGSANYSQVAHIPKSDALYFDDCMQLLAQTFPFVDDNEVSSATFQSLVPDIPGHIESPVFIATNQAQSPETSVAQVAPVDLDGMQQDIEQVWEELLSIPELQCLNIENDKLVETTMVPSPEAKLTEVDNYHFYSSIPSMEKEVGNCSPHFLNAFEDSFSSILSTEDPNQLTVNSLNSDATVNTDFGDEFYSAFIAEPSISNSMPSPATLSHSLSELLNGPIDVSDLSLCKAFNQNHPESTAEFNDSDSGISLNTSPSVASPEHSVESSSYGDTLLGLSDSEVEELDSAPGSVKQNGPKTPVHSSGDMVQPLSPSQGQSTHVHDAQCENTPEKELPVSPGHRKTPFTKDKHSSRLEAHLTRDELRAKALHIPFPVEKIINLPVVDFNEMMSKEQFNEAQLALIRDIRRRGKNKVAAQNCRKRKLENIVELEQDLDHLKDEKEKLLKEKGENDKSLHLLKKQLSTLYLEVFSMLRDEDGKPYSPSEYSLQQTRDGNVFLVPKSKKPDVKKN

N.N.O=C([O-])C1(C(=O)[O-])CCC1.[Pt+2] [Carboplatin, carboplatin, reference compound]
tumor growth (tumor volume) (A549 cells [1]; nude mice, four weeks): failed to arrest tumor growth

Cc1cc(C)cc(Nc2nc(C)c(-c3ccccc3)cc2C#N)c1 [Compound 1, 2-((3,5-dimethylphenyl)amino)-6-methyl-5-phenylnicotinonitrile]
sensitivity of Keap1 mutant (A549, H460) vs Keap1 wildtype (A427, MCF-7) cells ([2]; MTT): higher sensitivity | cell proliferation (MTT) ([2]; Keap1 mutant and Keap1 wild-type cancer cells): inhibited proliferation in various cancer cells | ROS production (A549 cells [3]): dose-dependently increased ROS production | effect in combination with chemotherapy drugs (carboplatin, doxorubicin, 5-fluorouracil, topotecan) on cell viability (A549 cells [4]): Additive effects | levels of NF-κB pathway proteins and other fast turnover proteins (cyclinG1, STAT3) [5]: did not change levels | overall expression pattern of abundant cellular proteins ([5]; data not shown): did not alter the overall expression pattern of abundant cellular proteins | cell viability of non-tumorigenic epithelial cells (MCF-10A cells): did not have any effects on cell viability | mRNA expression of NFE2L2 (Nrf2 pathway): did not affect the mRNA expression of NFE2L2 | mRNA expression of targets downstream of Nrf2 (NQO1, GCLC, GCLM, GST1A1, UGT1A6) (Nrf2 pathway): significantly (p<0.05) decreased the expression of all these downstream genes | expression of Nrf2 protein in the tumors (A549 cells [1]; immunohistochemistry, vs vehicle control group): diminished the expression of Nrf2 protein in the tumors | tolerability / body weight (A549 cells [1]; nude mice, 50 mg/kg BID i.p., four weeks): generally well tolerated in the mice without inducing any changes on body weight over time | tumor growth (tumor volume) (A549 cells [1]; nude mice, four weeks): appeared to slow tumor growth, but the change was not statistically significant | growth in soft agar [6]: significantly (p<0.05) suppressed the growth

CCC(=O)O[C@]1(C(=O)CCl)[C@@H](C)C[C@H]2[C@@H]3CCC4=CC(=O)C=C[C@]4(C)[C@@]3(F)[C@@H](O)C[C@@]21C [clobetasol propionate]
mechanism of Nrf2 degradation (Nrf2): promotes βTrCP-dependent degradation of Nrf2

brusatol
time for Nrf2 protein levels to return to basal levels (Nrf2): ≤ 8 h | time of maximum reduction of Nrf2 (Nrf2): 2 to 4 h
